Literature values as cited in patent publication US20110160253A1, “DEUTERATED TIZANIDINE” (priority 2008, published 2011).

What was measured:
[1] = primary cytochrome P450 isoenzyme involved being CYP1A2
[2] = patients treated with tizanidine; appears to be dose related

- administered dose that is metabolized [1]: Approximately 95%
SMILES: Clc1ccc2nsnc2c1NC1=NCCN1 [Tizanidine, 5-chloro-4-(2-imidazolin-2-ylamino)-2,1,3-benzothiodiazole]
- patients who report sedation [2]: 48%
